# Test results reported in patent publication US7138543B2, “Thiolalkyl benzoic acid derivatives” (Guilford Pharmaceuticals Inc., priority 2001, dated 2006).
# Assays:
# [1] = system: rats with unilaterally transected optic nerve; assay: Optic nerve transection (optic nerve fiber counting); format: in vivo, Rattus norvegicus; conditions: for FIBER NUMBER: 10 mg/kg daily intraperitoneal
# Experimental: All experiments complied with the Association for Research in Vision and Ophthalmology Statement for the Use of Animals in Ophthalmic and Vision Research. 82 male Brown Norway rats (Rattus norvegicus), each weighing approximately 250 gm, were treated using procedures approved by the Animal Care Committee of the Johns Hopkins University School of Medicine. The rats were housed with a 12 hour light/12 hour dark cycle and fed ad libitum.
# OPTIC NERVE TRANSECTION: The optic nerve was transected unilaterally in 26 rats under intraperitoneal pentobarbital anesthesia. The conjunctiva was opened with scissors and the optic nerve exposed by traction on extraocular muscles. The transection was performed with microscissors 5 mm posterior to the globe, with specific attention to avoidance of injury to major ocular blood vessels. Immediately after transection, the retina was examined ophthalmoscopically to assure that the retinal arterial blood supply was not disrupted. The conjunctiva was closed with absorbable suture and the eye dressed with antibiotic ointment. Beginning on the day of transection, the rats were treated daily with intraperitoneal injections of either a vehicle (9 rats with 50 mM HEPES-buffered saline) or a NAALADase inhibitor (8 rats with 10 mg/kg of Compound A and 9 rats with 10 mg/kg of Compound B). 5 saline treated rats, 3 Compound A treated rats, and 4 Compound B treated rats were sacrificed at 2 weeks, and the remaining rats at 4 weeks, after transection.
# OPTIC NERVE COUNTING: The rats were sacrificed by exsanguination under deep pentobarbital anesthesia. They were perfused through the heart with 2% paraformaldehyde/2% glutaraldehyde in 0.1 M phosphate buffer, pH 7.2, and the eyes with attached optic nerves were removed. A cross-section of the optic nerve from both experimental (glaucoma or transection) and control eyes was removed 1.5 mm posterior to the globe, 1 mm in thickness, and post-fixed in 2% osmium tetroxide in buffer. These were processed into epoxy resin, sectioned at 1 micron and stained with toluidine blue.
# The area of the optic nerve cross-section was measured by outlining its outer border at 10× magnification on an image analysis system (Universal Imaging Corp., Westchester, Pa.) with Synsys digital camera and Metamorph software. Three area measurements were taken and the mean value was determined. To measure the density and fiber diameter distributions, images were captured with a 100× phase contrast objective from 10 different areas of each nerve. These were edited to eliminate non-neural objects and the size of each axon internal to the myelin sheath (its minimum diameter) and the density of axons/square mm were calculated for each image and nerve. The mean density was multiplied by total nerve area to yield fiber number for each nerve. The total fiber number in glaucoma or transection nerves was compared to the normal, fellow eye of each rat to yield a percent loss value. The number of axons counted among the 10 images was an approximately 20% sample of the 80–90,000 axons in normal rat nerves. The person measuring axon number was masked to the protocol conducted on the nerves.
# BB/W diabetic rats [2] = assay: Progression of neuropathic pain in BB/W model (withdrawal latency); format: in vivo; conditions: 10 mg/kg i.p. daily; vs diabetic vehicle-treated rats, from 4 weeks through six months of treatment, FIG. 11
# Description: In vivo Assay of NAALADase Inhibitors on Progression of Neuropathic Pain in BB/W Models
# (§1) Male BB/W rats (BRI, Mass) spontaneously develop a cell mediated autoimmune destruction of pancreatic B cells, resulting in onset of insulin-dependent (Type I) diabetes (Awata, Guberski, Endocrinology (1995) 136(12):5731–5). […] This renders them valuable for experimental trials of new compounds for future treatments of this major disorder. In the present study, Compound A and Compound D were examined for their ability to alter the progression of diabetic neuropathy. The rats received daily injection of Compound A or Compound D (10 mg/kg i.p.) or vehicle, starting at the onset of diabetes (hyperglycemia) and up to 6 months thereafter. Another group of non-diabetic rats also receiving vehicle were tested. All animals were continuously monitored for body weight, urine volume, blood sugar and glycated haemoglobin. In the first month of the study, all animals were tested for thermal nociception in a Hargreaves apparatus, weekly. After the first month this was done biweekly and then monthly. The testing consists of directing an infrared heat source onto the dorsal surface of the rat hindpaw and noting the time taken for the animal to remove its paw (see Hargreaves et al., J. Biol. Chem. (1988) 263(36):19392–7 for a description of the experimental method). […]
# BB/W diabetic rats [3] = assay: Nerve conduction velocity in BB/W model; format: in vivo; conditions: 10 mg/kg daily; vs diabetic vehicle controls, from 8 weeks to six months, FIG. 12
# Description: as §1, with “monthly.” for “monthly. The testing consists of directing an infrared heat source onto the dorsal surface of the rat hindpaw and noting the time taken for the animal to remove its paw (see Hargreaves et al., J. Biol. Chem. (1988) 263(36):19392–7 for a description of the experimental method).”
# Nerve conduction velocity was also measured every two weeks through the first eight weeks of treatment and every month thereafter through to the six months of treatment (see De Koning et al., Peptides, Vol. 8, No. 3, pp. 415–22 (1987) for a description of the experimental method). […]
# [4] = 2 weeks survival after transection
# [5] = 4 weeks survival after transection
compound,measurement,setting,value
O=C(O)CCC(CP(=O)(O)Cc1c(F)c(F)c(F)c(F)c1F)C(=O)O (stereo not shown) [Compound A],remaining axons relative to the saline-treated rats,[1]; 2 weeks after transection,3 times
same,PERCENT DIFFERENCE in fiber number,[1]; [4],65.3 ± 30.9%
same,FIBER NUMBER,[1]; [4],"26,426 ± 23,025"
same,PERCENT DIFFERENCE in fiber number,[1]; [5],82.4 ± 8.9%
same,FIBER NUMBER,[1]; [5],"13,599 ± 7,868"
same,withdrawal latency,BB/W diabetic rats [2],longer withdrawal latencies
same,nerve conduction velocity,BB/W diabetic rats [3],significantly less severe nerve conduction deficits
